Measurements as given in publication PMC3914206.

Target: T1, panel of 442 kinases (Homo sapiens, UniProt Q6ZN16)
T1 construct: purchased KINOMEscan
T1 sequence (Q6ZN16 1-1313): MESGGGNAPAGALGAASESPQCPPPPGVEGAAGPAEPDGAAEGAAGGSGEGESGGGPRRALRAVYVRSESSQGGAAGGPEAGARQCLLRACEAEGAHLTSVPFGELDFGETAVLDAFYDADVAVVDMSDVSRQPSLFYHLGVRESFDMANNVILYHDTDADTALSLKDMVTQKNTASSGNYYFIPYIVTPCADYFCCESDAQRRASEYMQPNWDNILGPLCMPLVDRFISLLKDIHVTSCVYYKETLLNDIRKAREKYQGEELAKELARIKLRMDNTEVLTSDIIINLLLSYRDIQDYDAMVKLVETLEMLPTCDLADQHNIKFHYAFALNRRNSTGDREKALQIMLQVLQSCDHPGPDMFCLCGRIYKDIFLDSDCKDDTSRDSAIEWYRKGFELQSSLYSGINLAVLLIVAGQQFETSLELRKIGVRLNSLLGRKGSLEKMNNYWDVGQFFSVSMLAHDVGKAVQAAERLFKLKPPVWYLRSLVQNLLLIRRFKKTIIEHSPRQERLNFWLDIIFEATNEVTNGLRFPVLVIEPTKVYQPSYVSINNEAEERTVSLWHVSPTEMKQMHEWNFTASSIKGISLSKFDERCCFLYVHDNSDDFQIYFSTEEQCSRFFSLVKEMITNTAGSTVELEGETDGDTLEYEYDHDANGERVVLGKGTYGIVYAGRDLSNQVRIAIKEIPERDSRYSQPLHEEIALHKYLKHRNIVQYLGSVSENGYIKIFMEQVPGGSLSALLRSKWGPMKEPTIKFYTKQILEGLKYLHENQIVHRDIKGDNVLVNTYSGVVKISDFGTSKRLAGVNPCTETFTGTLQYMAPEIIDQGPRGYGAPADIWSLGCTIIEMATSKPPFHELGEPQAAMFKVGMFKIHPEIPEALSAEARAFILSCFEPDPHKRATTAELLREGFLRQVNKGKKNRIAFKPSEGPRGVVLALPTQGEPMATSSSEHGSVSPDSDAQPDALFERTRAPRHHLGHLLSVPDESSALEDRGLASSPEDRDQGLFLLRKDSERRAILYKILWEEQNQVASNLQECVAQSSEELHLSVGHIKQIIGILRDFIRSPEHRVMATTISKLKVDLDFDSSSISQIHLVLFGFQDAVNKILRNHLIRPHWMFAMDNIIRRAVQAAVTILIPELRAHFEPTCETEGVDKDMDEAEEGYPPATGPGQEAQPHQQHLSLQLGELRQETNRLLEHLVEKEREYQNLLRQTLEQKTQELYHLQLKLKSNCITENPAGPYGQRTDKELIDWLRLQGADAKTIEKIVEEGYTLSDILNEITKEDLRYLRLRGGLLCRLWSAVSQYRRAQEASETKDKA
Assay type: binding
Settings: Compound Concentration 10 µM
Description: We assessed the selectivity of members of this scaffold using the KINOMEscan methodology across a near comprehensive panel of 442 kinases [[18,27]].

| Compound | KINOMEscan: MAP3K15 |
| --- | --- |
| COc1cc(C(=O)N2CCC(N3CCN(C)CC3)CC2)ccc1Nc1ncc2c(n1)N(C)c1ccccc1C(=O)N2C [15 (LRRK2-IN-1)] | 69 |
| CCOc1cc(C(=O)N2CCC(N3CCN(C)CC3)CC2)ccc1Nc1ncc2c(n1)N(C1CCCC1)c1ccccc1C(=O)N2C [Compound 26] | 95 |
| COc1cc(C(=O)N2CCC(N3CCN(C)CC3)CC2)ccc1Nc1ncc2c(n1)N1CCc3cccc(c31)C(=O)N2C [Compound 24] | 77 |
| COc1cc(C(=O)N2CCC(N3CCN(C)CC3)CC2)ccc1Nc1ncc2c(n1)N(C1CCCC1)c1ccccc1C(=O)N2C [Compound 25, 11-cyclopentyl-2-((2-methoxy-4-(4-(4-methylpiperazin-1-yl)piperidine-1-carbonyl)phenyl)amino)-5-methyl-5H-benzo[e]pyrimido[5,4-b][1,4]diazepin-6(11H)-one] | 88 |
